Results as given in patent US20230303817A1, “BLENDED POLYVINYL ALCOHOL DRUG DELIVERY SYSTEMS” (The University of British Columbia, priority 2020, published 2023).
In brackets after ≈: the same amount, converted by molar mass.

Columns and labels:
[1] = Release of other therapeutic agents from blended PVA cast films or electrospun membranes; assay type: physicochemical; settings: for drug release: 1% gentamicin
Procedure: Films or electrospun membrane were manufactured as described above containing either docetaxel, doxycycline, gentamicin or bovine serum albumin (BSA; as a protein model for any “biological” based drug such as an antibody). […] Gentamicin was analyzed using a fluorescence tag assay using Fluoraldehyde™ (Thermo Fisher) and BSA protein release was assayed using a BCA protein analysis kit.

[2] = cited from earlier work
MRSA strain USA300 = test: Antimicrobial efficacy of silver-loaded PVA films and membranes; assay type: cell-based, S. aureus; settings: for bacterial death: 1% w/w silver, 20 mg in 10 mL, up to 48 hours; for Anti-bacterial (MRSA) activity: 1% w/w silver salt (FIG. 11)
Procedure: In order to illustrate the antimicrobial activity of PVA-silver formulations, all cast films and electrospun membranes were weighed at 20 mg +/- 0.5 mg. The methicillin resistant strain of S. aureus (MRSA strain USA300) was cultured overnight from freezer stocks (20 µL bacterial sample into 20 mL Luria Bertani (LB) broth), followed by a second sub-culture (200 µL in 20 mL LB broth) until an optical density of -0.3-0.5 at λ=600 nm was reached (measured using an Eppendorf BioPhotometer (Eppendorf, Mississauga, ON, Canada), at which point bacteria were used as outlined below.

[3] = Silver release studies (inductively coupled plasma analysis of release media); assay type: physicochemical; settings: electrospun membranes 10:90 PVA99%:PVA88%, 1% w/w silver salt
Procedure: Films or electrospun membranes containing silver were placed in deionized water and the media sampled at regular intervals for silver analysis by Inductively coupled plasma analysis. Silver calibration standards were run every 10 samples. The instrument held reproducible standard curves over 100 sequential silver analysis with detection limits approximating 10 ng/ml. Each release study was run in triplicate for at least two weeks and the results plotted as the calculated percent silver released as a function of time.

[4] = Film swelling and degradation studies in deionized water (cast films and electrospun membranes); assay type: physicochemical; settings: cast films with 48% and 46% PVA 99% content (rest PVA 88%)
Procedure: PVA films or electrospun membranes were prepared as described above. These films were then stored for one week in the dark before use. Small sections of films (approximate diameters of 2 cm) were then placed on moist 0.2 µm filter discs (Millipore, Billerica, MA, USA) and weighed. The films and filters were covered with a thin layer of deionized water and left for appropriate times. After set time points the filter discs and adherent PVA-silver gel were moved to a Millipore vacuum apparatus and all excess water was removed from the filter over approximately 15 seconds. The combined PVA gel and filter were reweighed and recovered with a fresh layer of excess water. The weight gain (swelling) and weight loss (dissolution) were then calculated as a percentage of the original dry film weight.

[5] = electrospun membranes 10:90 PVA99%:PVA88%

CC(=O)O[C@@]12CO[C@@H]1C[C@H](O)[C@@]1(C)C(=O)[C@H](O)C3=C(C)[C@@H](OC(=O)[C@H](O)[C@@H](NC(=O)OC(C)(C)C)c4ccccc4)C[C@@](O)([C@@H](OC(=O)c4ccccc4)[C@H]21)C3(C)C [docetaxel]
drug release, % of total drug ([1]; electrospun membranes 35:65, 45:55 or 55:45 PVA 99%:88%, 1% docetaxel, over 7 days): 5-8%

C[C@H]1c2cccc(O)c2C(=O)C2=C(O)[C@]3(O)C(=O)C(C(N)=O)=C(O)[C@@H](N(C)C)[C@@H]3[C@@H](O)[C@@H]21 [doxycycline]
water solubility [2]: 500 µg/mL (≈ 1130 µM)

O=S(=O)([O-])[O-].[Ag+].[Ag+] [silver sulphate]
bacterial death (MRSA strain USA300; cast films 40:60 PVA99%:PVA88%): 100%
Anti-bacterial (MRSA) activity (MRSA strain USA300; [5]): killed all MRSA bacteria
bacterial death (MRSA strain USA300; [5]): 100%
Anti-bacterial (MRSA) activity (MRSA strain USA300; films 40:60 PVA99%:PVA88%): killed all MRSA bacteria
silver release by day 11 [3]: 75%
swelling at 6 hours [4]: > 0%

gentamicin
drug release ([1]; cast films 35:65, 45:55 or 55:45 PVA 99%:88%, over 7 days): 50-70%
drug release ([1]; electrospun membranes 35:65, 45:55 or 55:45 PVA 99%:88%, over 6 days): 40%
